# Experimental data as given in patent US9758524B2, “4-imidazopyridazin-1-yl-benzamides as Btk inhibitors” (Merck Sharp & Dohme B.V., priority 2011, dated 2017).
# Read-outs that look alike come from different tables or passages of the source.
# Tests used:
# FynT enzyme = FynT enzyme (Homo sapiens (Human), UniProt P06241); assay: FynT enzyme activity (IMAP fluorescence polarization assay); type: biochemical; conditions: 60 min pre-incubation, 0.2 μM ATP
# Description: FynT enzyme activity is measured using the IMAP (immobilized metal ion affinity-based fluorescence polarization) assay as outlined below.
# Test compounds and FynT enzyme are pre-incubated 60 minutes at room temperature, before adding 5 μL/well of 400 nM Fluorescin labeled substrate peptide (p34cdc2 substrate peptide, e.g. #R7157/#R7172, Molecular Devices) in KR-buffer. Final peptide substrate concentration in assay is 100 nM. […] Following incubation for 2 h at room temperature the enzyme reaction is stopped by adding 40 μL/well IMAP Progressive Binding Solution (according to suppliers (Molecular Devices) protocol using 75% 1× buffer A and 25% 1× buffer B with 1:600 Progressive Binding Solution). After 60 min incubation at room temperature in the dark the FP signal is read. […] Values are calculated as percentage of the difference in readout (ΔmPi) of the controls with and without ATP. EC50 values are determined by curve fitting of the experimental results using Activity Base.
# Btk enzyme (His-Btk) = Btk enzyme (His-Btk) (Homo sapiens (Human), UniProt Q06187); assay: Btk enzyme activity (IMAP fluorescence polarization assay)
# Lck enzyme = Lck enzyme (Homo sapiens (Human), UniProt P06239); assay: Lck enzyme activity (IMAP fluorescence polarization assay)
# Src enzyme = Src enzyme (Homo sapiens (Human), UniProt P12931); assay: Src enzyme activity (IMAP fluorescence polarization assay); conditions: read-out: EC50 Src activity values; IMAP, 60 min pre-incubation, 4 μM ATP
# Lyn enzyme = Lyn enzyme (Homo sapiens (Human), UniProt P07948); assay: Lyn enzyme activity (IMAP fluorescence polarization assay); conditions: read-out: EC50 Lyn activity values, 60 min pre-incubation, 2 μM ATP, bin bound in μM
# [1] = read-out: EC50 Btk activity values, IMAP, 60 min pre-incubation, 5 μM ATP, bin bound in nM
# [2] = read-out: EC50 Lck activity values, IMAP, 60 min pre-incubation, 6 μM ATP, bin bound in μM
# [3] = IMAP, 60 min pre-incubation, 5 μM ATP, bin bound in nM
# [4] = IMAP, 60 min pre-incubation, 6 μM ATP, bin bound in μM
# Chain of Src enzyme (P12931 whole entry, looked up): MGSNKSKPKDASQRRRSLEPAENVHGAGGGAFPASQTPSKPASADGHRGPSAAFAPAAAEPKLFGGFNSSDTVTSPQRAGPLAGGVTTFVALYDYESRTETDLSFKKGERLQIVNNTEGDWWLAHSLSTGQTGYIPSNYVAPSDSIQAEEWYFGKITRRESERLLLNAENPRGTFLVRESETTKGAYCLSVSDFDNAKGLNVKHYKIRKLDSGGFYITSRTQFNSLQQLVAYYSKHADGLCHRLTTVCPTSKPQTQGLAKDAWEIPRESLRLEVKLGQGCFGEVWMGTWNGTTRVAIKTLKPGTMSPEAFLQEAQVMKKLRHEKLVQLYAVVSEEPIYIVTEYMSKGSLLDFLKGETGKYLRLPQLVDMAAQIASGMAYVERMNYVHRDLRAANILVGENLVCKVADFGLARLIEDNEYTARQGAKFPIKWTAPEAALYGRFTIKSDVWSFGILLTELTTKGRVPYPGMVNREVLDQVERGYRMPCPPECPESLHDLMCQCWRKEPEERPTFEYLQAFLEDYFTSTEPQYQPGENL
# Chain of FynT enzyme (P06241 other isoform, or with tags, fused parts or gaps): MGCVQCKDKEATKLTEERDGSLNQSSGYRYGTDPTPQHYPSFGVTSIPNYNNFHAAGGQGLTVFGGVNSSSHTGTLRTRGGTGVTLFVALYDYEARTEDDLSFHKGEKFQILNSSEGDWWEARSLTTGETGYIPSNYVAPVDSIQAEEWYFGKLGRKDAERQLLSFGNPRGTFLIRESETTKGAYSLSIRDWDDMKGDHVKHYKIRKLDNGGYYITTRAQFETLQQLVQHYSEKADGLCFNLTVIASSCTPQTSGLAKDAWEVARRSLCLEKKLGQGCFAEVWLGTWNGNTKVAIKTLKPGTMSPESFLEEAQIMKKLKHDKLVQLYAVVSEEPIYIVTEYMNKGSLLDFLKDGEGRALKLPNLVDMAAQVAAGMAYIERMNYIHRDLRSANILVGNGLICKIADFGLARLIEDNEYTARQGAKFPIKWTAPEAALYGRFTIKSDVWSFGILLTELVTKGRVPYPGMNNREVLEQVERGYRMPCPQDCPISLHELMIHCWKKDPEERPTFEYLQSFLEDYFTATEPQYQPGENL
# Chain of Lyn enzyme (P07948 whole entry): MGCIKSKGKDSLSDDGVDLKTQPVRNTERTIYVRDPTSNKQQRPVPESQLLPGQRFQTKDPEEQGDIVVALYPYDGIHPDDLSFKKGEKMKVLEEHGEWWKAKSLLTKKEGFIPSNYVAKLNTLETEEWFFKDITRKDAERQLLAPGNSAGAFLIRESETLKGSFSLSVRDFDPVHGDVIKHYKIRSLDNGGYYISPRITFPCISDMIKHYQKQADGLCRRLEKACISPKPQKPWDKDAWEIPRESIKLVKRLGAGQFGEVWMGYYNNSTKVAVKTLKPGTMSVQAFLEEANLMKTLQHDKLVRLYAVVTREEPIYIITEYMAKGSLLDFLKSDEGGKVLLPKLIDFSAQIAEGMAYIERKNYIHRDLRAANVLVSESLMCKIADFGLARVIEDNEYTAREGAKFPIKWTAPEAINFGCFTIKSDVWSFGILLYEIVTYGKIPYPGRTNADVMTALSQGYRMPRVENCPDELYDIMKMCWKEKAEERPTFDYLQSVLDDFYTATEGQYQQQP
# Chain of Btk enzyme (His-Btk) (Q06187 whole entry): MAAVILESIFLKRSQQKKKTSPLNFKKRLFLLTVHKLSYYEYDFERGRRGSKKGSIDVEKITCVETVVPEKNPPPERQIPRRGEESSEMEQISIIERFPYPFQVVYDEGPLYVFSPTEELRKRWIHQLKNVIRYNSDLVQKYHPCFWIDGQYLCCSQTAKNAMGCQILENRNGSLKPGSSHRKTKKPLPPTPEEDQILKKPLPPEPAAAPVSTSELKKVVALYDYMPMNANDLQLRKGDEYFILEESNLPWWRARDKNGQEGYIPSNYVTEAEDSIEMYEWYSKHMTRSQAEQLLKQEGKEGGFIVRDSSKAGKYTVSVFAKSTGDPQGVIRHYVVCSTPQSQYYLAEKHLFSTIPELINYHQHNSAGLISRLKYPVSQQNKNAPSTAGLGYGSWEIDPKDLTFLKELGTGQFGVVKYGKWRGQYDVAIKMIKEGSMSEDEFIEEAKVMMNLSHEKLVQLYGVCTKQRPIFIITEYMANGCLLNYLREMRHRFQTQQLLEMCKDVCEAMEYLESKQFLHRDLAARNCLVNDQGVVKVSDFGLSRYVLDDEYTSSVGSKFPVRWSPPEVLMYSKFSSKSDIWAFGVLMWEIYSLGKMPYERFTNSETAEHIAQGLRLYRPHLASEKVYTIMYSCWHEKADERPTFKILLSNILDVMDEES
# Chain of Lck enzyme (P06239 whole entry): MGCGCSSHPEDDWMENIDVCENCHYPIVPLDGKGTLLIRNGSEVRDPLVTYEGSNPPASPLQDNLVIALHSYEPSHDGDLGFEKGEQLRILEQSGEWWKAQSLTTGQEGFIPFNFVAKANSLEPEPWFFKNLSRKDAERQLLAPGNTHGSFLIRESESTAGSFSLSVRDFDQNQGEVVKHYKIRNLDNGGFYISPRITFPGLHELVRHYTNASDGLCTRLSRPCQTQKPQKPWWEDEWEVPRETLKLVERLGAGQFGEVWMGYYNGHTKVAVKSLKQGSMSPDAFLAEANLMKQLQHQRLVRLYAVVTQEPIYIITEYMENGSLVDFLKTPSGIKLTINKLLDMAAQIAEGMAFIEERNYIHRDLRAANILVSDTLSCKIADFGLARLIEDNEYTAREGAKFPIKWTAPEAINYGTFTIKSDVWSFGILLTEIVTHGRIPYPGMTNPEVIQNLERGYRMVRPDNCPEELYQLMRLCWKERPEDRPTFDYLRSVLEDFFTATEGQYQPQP
Compound,EC50 (FynT enzyme) [nM],EC50 (Btk enzyme (His-Btk); [1]) [nM],EC50 (Lck enzyme; [2]) [µM],EC50 (Src enzyme) [nM],EC50 (Lyn enzyme) [µM],EC50 (Btk enzyme (His-Btk)) [nM],EC50 Btk activity values (Btk enzyme (His-Btk); [3]) [nM],EC50 (Lck enzyme) [µM],EC50 Lck activity values (Lck enzyme; [4]) [µM]
"CCCc1ccnc(NC(=O)c2ccc(-c3nc([C@H](C)N(C)C(=O)/C=C/COC)n4ccnc(N)c34)cc2)c1 [Example 48, (S,E)-4-(8-amino-3-(1-(4-methoxy-N-methylbut-2-enamido)ethyl)imidazo[1,5-a]pyrazin-1-yl)-N-(4-propylpyridin-2-yl)benzamide]",≥ 1000,< 10,≥ 1,≥ 1000,≥ 1,–,–,–,–
"C[C@H](NC(=O)c1ccnc(Cl)n1)c1nc(-c2ccc(C(=O)Nc3ccccn3)cc2)c2c(N)nccn12 [Example 105, (S)-N-(1-(8-amino-1-(4-(pyridin-2-ylcarbamoyl)phenyl)imidazo[1,5-a]pyrazin-3-yl)ethyl)-2-chloropyrimidine-4-carboxamide]",≥ 1000,–,≥ 1,≥ 1000,≥ 1,10 to 100,<100,–,–
"CCc1cnc(NC(=O)c2ccc(-c3nc([C@@H]4CCCCN4C(=O)/C=C/COC)n4ccnc(N)c34)cc2)s1 [Example 25, (S,E)-4-(8-Amino-3-(1-(4-methoxybut-2-enoyl)piperidin-2-yl)imidazo[1,5-a]pyrazin-1-yl)-N-(5-ethylthiazol-2-yl)benzamide]",≥ 1000,< 10,≥ 1,≥ 1000,≥ 1,–,–,–,–
"CC#CC(=O)N1CCC[C@H]1c1nc(-c2ccc(C(=O)Nc3cc(C)ccn3)cc2)c2c(N)nccn12 [Example 8, (S)-4-(8-Amino-3-(1-but-2-ynoylpyrrolidin-2-yl)imidazo[1,5-a]pyrazin-1-yl)-N-(4-methylpyridin-2-yl)benzamide]",≥ 1000,< 10,≥ 1,≥ 1000,≥ 1,–,–,–,–
"CC#CC(=O)N1CCOC[C@H]1c1nc(-c2ccc(C(=O)Nc3ccccn3)cc2)c2c(N)nccn12 [Example 38, (R)-4-(8-Amino-3-(4-but-2-ynoylmorpholin-3-yl)imidazo[1,5-a]pyrazin-1-yl)-N-(pyridin-2-yl)benzamide]",≥ 1000,< 10,≥ 1,≥ 1000,≥ 1,–,–,–,–
"CC#CC(=O)N(C)[C@@H](C)c1nc(-c2ccc(C(=O)Nc3cc(CCC)ccn3)cc2)c2c(N)nccn12 [Example 113, (S)-4-(8-amino-3-(1-(N-methylbut-2-ynamido)ethyl)imidazo[1,5-a]pyrazin-1-yl)-N-(4-propylpyridin-2-yl)benzamide]",≥ 1000,–,≥ 1,≥ 1000,≥ 1,10 to 100,<100,–,–
"CC#CC(=O)N1CCC[C@H]1c1nc(-c2ccc(C(=O)Nc3cc(CCC)ccn3)cc2)c2c(N)nccn12 [Example 47, (S)-4-(8-amino-3-(1-but-2-ynoylpyrrolidin-2-yl)imidazo[1,5-a]pyrazin-1-yl)-N-(4-propylpyridin-2-yl)benzamide]",≥ 1000,< 10,≥ 1,≥ 1000,≥ 1,–,–,–,–
"C=CC(=O)N1CCCC[C@H]1c1nc(-c2ccc(C(=O)Nc3nccc(C)n3)cc2)c2c(N)nccn12 [Example 21, (S)-4-(3-(1-Acryloylpiperidin-2-yl)-8-aminoimidazo[1,5-a]pyrazin-1-yl)-N-(4-methylpyrimidin-2-yl)benzamide]",≥ 1000,< 10,≥ 1,≥ 1000,≥ 1,–,–,–,–
"CC#CC(=O)N1CCCC[C@H]1c1nc(-c2ccc(C(=O)Nc3ncc(CC)s3)cc2)c2c(N)nccn12 [Example 116, (S)-4-(8-amino-3-(1-but-2-ynoylpiperidin-2-yl)imidazo[1,5-a]pyrazin-1-yl)-N-(5-ethylthiazol-2-yl)benzamide]",≥ 1000,< 10,≥ 1,≥ 1000,≥ 1,–,–,–,–
"COC/C=C/C(=O)N1CCCCC[C@H]1c1nc(-c2ccc(C(=O)Nc3ccccn3)cc2)c2c(N)nccn12 [Example 97, (E)-4-(8-amino-3-(1-(4-methoxybut-2-enoyl)azepan-2-yl)imidazo[1,5-a]pyrazin-1-yl)-N-(pyridin-2-yl)benzamide]",≥ 1000,–,≥ 1,≥ 1000,≥ 1,10 to 100,<100,–,–
"CCCc1ccnc(NC(=O)c2ccc(-c3nc([C@H](C)N(C)C(=O)/C=C/CN(C)C)n4ccnc(N)c34)cc2)c1 [Example 76, (S,E)-4-(8-amino-3-(1-(4-(dimethylamino)-N-methylbut-2-enamido)ethyl)imidazo[1,5-a]pyrazin-1-yl)-N-(4-propylpyridin-2-yl)benzamide]",≥ 1000,< 10,–,≥ 1000,≥ 1,–,–,0.1 to 1,<1
"CCCc1ccnc(NC(=O)c2ccc(-c3nc([C@@H]4CCCN4C(=O)/C=C/CN4CCCC4)n4ccnc(N)c34)cc2)c1 [Example 77, (S,E)-4-(8-amino-3-(1-(4-(pyrrolidin-1-yl)but-2-enoyl)pyrrolidin-2-yl)imidazo[1,5-a]pyrazin-1-yl)-N-(4-propylpyridin-2-yl)benzamide]",≥ 1000,< 10,≥ 1,≥ 1000,≥ 1,–,–,–,–
"CC#CC(=O)N1CCC[C@H]1c1nc(-c2ccc(C(=O)Nc3cc(-c4ccccc4)ccn3)cc2)c2c(N)nccn12 [Example 132, (S)-4-(8-amino-3-(1-but-2-ynoylpyrrolidin-2-yl)imidazo[1,5-a]pyrazin-1-yl)-N-(4-phenylpyridin-2-yl)benzamide]",≥ 1000,< 10,–,≥ 1000,≥ 1,–,–,0.1 to 1,<1
"CCCc1ccnc(NC(=O)c2ccc(-c3nc([C@@H]4CCCN4C(=O)c4ccnc(Cl)n4)n4ccnc(N)c34)cc2)c1 [Example 79, (S)-4-(8-amino-3-(1-(2-chloropyrimidine-4-carbonyl)pyrrolidin-2-yl)imidazo[1,5-a]pyrazin-1-yl)-N-(4-propylpyridin-2-yl)benzamide]",≥ 1000,< 10,≥ 1,≥ 1000,≥ 1,–,–,–,–
"COC/C=C/C(=O)N1CCOC[C@H]1c1nc(-c2ccc(C(=O)Nc3ccccn3)cc2)c2c(N)nccn12 [Example 120, (R,E)-4-(8-amino-3-(4-(4-methoxybut-2-enoyl)morpholin-3-yl)imidazo[1,5-a]pyrazin-1-yl)-N-(pyridin-2-yl)benzamide]",≥ 1000,< 10,≥ 1,≥ 1000,≥ 1,–,–,–,–
"CC#CC(=O)N1CCC[C@H]1c1nc(-c2ccc(C(=O)Nc3nc4c(s3)CCCC4)cc2)c2c(N)nccn12 [Example 12, (S)-4-(8-Amino-3-(1-but-2-ynoylpyrrolidin-2-yl)imidazo[1,5-a]pyrazin-1-yl)-N-(4,5,6,7-tetrahydrobenzo[d]thiazol-2-yl)benzamide]",≥ 1000,< 10,≥ 1,≥ 1000,≥ 1,–,–,–,–
"CC#CC(=O)N1CCC[C@H]1c1nc(-c2ccc(C(=O)Nc3cc(N4CCCC4)ccn3)cc2)c2c(N)nccn12 [Example 96, (S)-4-(8-amino-3-(1-but-2-ynoylpyrrolidin-2-yl)imidazo[1,5-a]pyrazin-1-yl)-N-(4-(pyrrolidin-1-yl)pyridin-2-yl)benzamide]",≥ 1000,–,≥ 1,≥ 1000,≥ 1,10 to 100,<100,–,–
"CC#CC(=O)N1CCC[C@H]1c1nc(-c2ccc(C(=O)Nc3cc(F)ccn3)cc2)c2c(N)nccn12 [Example 106, (S)-4-(8-amino-3-(1-but-2-ynoylpyrrolidin-2-yl)imidazo[1,5-a]pyrazin-1-yl)-N-(4-fluoropyridin-2-yl)benzamide]",≥ 1000,–,≥ 1,≥ 1000,≥ 1,10 to 100,<100,–,–
"Nc1nccn2c([C@@H]3CCCN3C(=O)c3ccnc(Cl)n3)nc(-c3ccc(C(=O)Nc4ccccn4)cc3)c12 [Example 5, (S)-4-(8-amino-3-(1-(2-chloropyrimidine-4-carbonyl)pyrrolidin-2-yl)imidazo[1,5-a]pyrazin-1-yl)-N-(pyridin-2-yl)benzamide]",≥ 1000,–,≥ 1,≥ 1000,≥ 1,10 to 100,<100,–,–
